Reference: US11357779B2 (G1 Therapeutics, Inc., priority 2018, dated 2022)
Read-outs that look alike come from different tables or passages of the source.

Assay: Plasma concentration versus time of Compound I and metabolite Compound III in patients dosed QD or BID with Form B of Compound II plus fulvestrant
Format: in vivo, human
Conditions: for concentration at 0 h / concentration at 1 h / concentration at 2 h / concentration at 3 h / concentration at 4 h / concentration at 6 h / concentration at 8 h / concentration at 10 h / concentration at 12 h / concentration at 8 day / concentration at 15 day / concentration at 22 day: human, plasma, oral, 100 mg; for concentration at 1 h: Day 1, 1.0 h; for concentration at 2 h: Day 1, 2.0 h; for concentration at 3 h: Day 1, 3.0 h; for concentration at 4 h: Day 1, 4.0 h; for concentration at 6 h: Day 1, 6.0 h; for concentration at 8 h: Day 1, 8.0 h; for concentration at 10 h: Day 1, 10.0 h; for concentration at 12 h: Day 1, 12.0 h
Text: Patients were enrolled into 1 of 2 parallel, independently operating, dose-escalation dosing cohorts with Form B of Compound II administered continuously either once daily (QD) or twice daily (BID) with food with fixed-dose fulvestrant (intramuscularly every 14 days for the first three injections and then every 28 days). Pre- or perimenopausal patients also received goserelin for the duration of study treatment. A […] agonist was started at least 28 days before the first dose of Form B, and those patients who were taking another LHRH agonist were switched to goserelin on Day 1. Patients were split into […] cohorts providing once a day (QD) dosing of 200 mg, 300 mg, 400 mg, 500 mg, or 650 mg of Form B, or twice a day (BID) dosing of 100 mg, 150 mg, or 200 mg of Form B. The second dose in BID cohorts was not administered in the evening until at least 12 hours after the initial morning dose of Form B. The dosing cohorts for Form B of Compound II are provided in Table 1.
Blood samples were collected at the following time points relative to the morning dose of Form B at Day 1 and at Day 29: pre-dose (0 hour) and 1, 2, 3, 4, 6, 8, 10, 12 (prior to the evening dose in the BID cohorts), and 24 (prior to the next day's morning dose) hours after dosing. A 5-minute time window was allowed for samples collected between the predose and 3 hours after Form B dosing. A 15-minute window was allowed for samples collected between 4 to 12 hours after Form B dosing. A 1-hour window was allowed for the sample collected 24 hours after Form B dosing. Blood samples for Compound I PK trough levels were collected pre-dose at Day 8, Day 15, and Day 22 prior to the morning administration of Compound I. Plasma concentrations of Compound I and its metabolite, Compound III, were measured using validated methods.
Analysis of plasma concentration versus time data for calculation of standard pharmacokinetic (PK) parameters following oral administration was conducted using Phoenix WinNonlin version 6.3 using actual blood sampling times.

[1] = Cohort 3, 400 mg QD of Form B, Day 8
[2] = Cohort 3, 400 mg QD of Form B, Day 15
[3] = Cohort 3, 400 mg QD of Form B, Day 22
[4] = Cohort 4, 500 mg QD of Form B, Day 8
[5] = Cohort 4, 500 mg QD of Form B, Day 15
[6] = Cohort 4, 500 mg QD of Form B, Day 22
[7] = Cohort 7, 150 mg BID of Form B, Day 29, 0.0 h
[8] = Cohort 7, 150 mg BID of Form B, Day 29, 1.0 h
[9] = Cohort 7, 150 mg BID of Form B, Day 29, 2.0 h
[10] = Cohort 7, 150 mg BID of Form B, Day 29, 3.0 h
[11] = Cohort 7, 150 mg BID of Form B, Day 29, 4.0 h
[12] = Cohort 7, 150 mg BID of Form B, Day 29, 6.0 h
[13] = Cohort 7, 150 mg BID of Form B, Day 29, 8.0 h
[14] = Cohort 7, 150 mg BID of Form B, Day 29, 10.0 h
[15] = Cohort 7, 150 mg BID of Form B, Day 29, 12.0 h
[16] = Cohort 8, 200 mg BID of Form B, Day 8
[17] = Cohort 8, 200 mg BID of Form B, Day 15
[18] = Cohort 8, 200 mg BID of Form B, Day 22
[19] = Cohort 8, 200 mg BID of Form B, Day 29, 0.0 h
[20] = Cohort 8, 200 mg BID of Form B, Day 29, 1.0 h
[21] = Cohort 8, 200 mg BID of Form B, Day 29, 2.0 h
[22] = Cohort 8, 200 mg BID of Form B, Day 29, 3.0 h
[23] = Cohort 8, 200 mg BID of Form B, Day 29, 4.0 h
[24] = 100 mg BID of Form B, Mean, read-out: Compound I Concentration
[25] = 100 mg BID of Form B, Median, read-out: Compound I Concentration

## CC(C)N1CCN(c2ccc(Nc3ncc4cc5n(c4n3)C3(CCCCC3)CNC5=O)nc2)CC1 [Compound I, 2′-((5-(4-isopropylpiperazin-1-yl)pyridin-2-yl)amino)-7′,8′-dihydro-6′H-spiro[cyclohexane-1,9′-pyrazino[1′,2′:1,5]pyrrolo[2,3-d]pyrimidin]-6′-one]
200 mg QD of Form B, Day 8, Mean
  Trough Compound I Concentration: 4.93 ng/mL
200 mg QD of Form B, Day 8, Median
  Trough Compound I Concentration: 4.22 ng/mL
200 mg QD of Form B, Day 15, Mean
  Trough Compound I Concentration: 5.56 ng/mL
200 mg QD of Form B, Day 15, Median
  Trough Compound I Concentration: 4.59 ng/mL
200 mg QD of Form B, Day 22, Mean
  Trough Compound I Concentration: 6.24 ng/mL
200 mg QD of Form B, Day 22, Median
  Trough Compound I Concentration: 5.32 ng/mL
300 mg QD of Form B, Day 8, Mean
  Trough Compound I Concentration: 14.0 ng/mL
300 mg QD of Form B, Day 8, Median
  Trough Compound I Concentration: 17.3 ng/mL
300 mg QD of Form B, Day 15, Mean
  Trough Compound I Concentration: 16.7 ng/mL
300 mg QD of Form B, Day 15, Median
  Trough Compound I Concentration: 19.9 ng/mL
300 mg QD of Form B, Day 22, Mean
  Trough Compound I Concentration: 16.4 ng/mL
300 mg QD of Form B, Day 22, Median
  Trough Compound I Concentration: 10.9 ng/mL
[1]
  Trough Compound I Concentration, Max: 6.85 ng/mL
  Trough Compound I Concentration, Mean: 5.63 ng/mL
  Trough Compound I Concentration, Median: 6.16 ng/mL
  Trough Compound I Concentration, Min: 3.87 ng/mL
[2]
  Trough Compound I Concentration, Max: 10.2 ng/mL
  Trough Compound I Concentration, Mean: 6.66 ng/mL
  Trough Compound I Concentration, Median: 5.33 ng/mL
  Trough Compound I Concentration, Min: 4.46 ng/mL
[3]
  Trough Compound I Concentration, Max: 11.7 ng/mL
  Trough Compound I Concentration, Mean: 9.34 ng/mL
  Trough Compound I Concentration, Median: 10.4 ng/mL
  Trough Compound I Concentration, Min: 5.91 ng/mL
[4]
  Trough Compound I Concentration, Mean: 17.1 ng/mL
  Trough Compound I Concentration, Min: 10.6 ng/mL
[5]
  Trough Compound I Concentration, Mean: 23.8 ng/mL
  Trough Compound I Concentration, Min: 14.5 ng/mL
[6]
  Trough Compound I Concentration, Mean: 19.8 ng/mL
  Trough Compound I Concentration, Min: 14.4 ng/mL
Cohort 7, 150 mg BID of Form B, Day 15
  Trough Compound I Concentration, Mean: 24.8 ng/mL
Cohort 7, 150 mg BID of Form B, Day 22
  Trough Compound I Concentration, Mean: 20.6 ng/mL
[7]
  Compound I Concentration, Mean: 26.2 ng/mL
  Compound I Concentration, Min: 9.03 ng/mL
[8]
  Compound I Concentration, Max: 57.0 ng/mL
  Compound I Concentration, Mean: 37.6 ng/mL
  Compound I Concentration, Min: 27.0 ng/mL
[9]
  Compound I Concentration, Max: 64.9 ng/mL
  Compound I Concentration, Mean: 41.3 ng/mL
  Compound I Concentration, Min: 24.6 ng/mL
[10]
  Compound I Concentration, Max: 76.6 ng/mL
  Compound I Concentration, Mean: 46.0 ng/mL
  Compound I Concentration, Min: 25.7 ng/mL
[11]
  Compound I Concentration, Max: 83.2 ng/mL
  Compound I Concentration, Mean: 50.2 ng/mL
  Compound I Concentration, Min: 30.5 ng/mL
[12]
  Compound I Concentration, Max: 67.2 ng/mL
  Compound I Concentration, Mean: 38.0 ng/mL
  Compound I Concentration, Min: 20.3 ng/mL
[13]
  Compound I Concentration, Max: 67.4 ng/mL
  Compound I Concentration, Mean: 36.7 ng/mL
  Compound I Concentration, Min: 15.8 ng/mL
[14]
  Compound I Concentration, Max: 59.7 ng/mL
  Compound I Concentration, Mean: 32.2 ng/mL
  Compound I Concentration, Min: 13.0 ng/mL
[15]
  Compound I Concentration, Max: 58.1 ng/mL
  Compound I Concentration, Mean: 28.5 ng/mL
  Compound I Concentration, Min: 10.2 ng/mL
[16]
  Trough Compound I Concentration, Max: 19.7 ng/mL
  Trough Compound I Concentration, Mean: 9.41 ng/mL
  Trough Compound I Concentration, Median: 6.82 ng/mL
  Trough Compound I Concentration, Min: 1.72 ng/mL
[17]
  Trough Compound I Concentration, Max: 16.3 ng/mL
  Trough Compound I Concentration, Mean: 11.0 ng/mL
  Trough Compound I Concentration, Median: 11.0 ng/mL
  Trough Compound I Concentration, Min: 5.71 ng/mL
[18]
  Trough Compound I Concentration, Max: 15.5 ng/mL
  Trough Compound I Concentration, Mean: 7.11 ng/mL
  Trough Compound I Concentration, Median: 5.83 ng/mL
  Trough Compound I Concentration, Min: 0.00 ng/mL
[19]
  Compound I Concentration, Max: 17.2 ng/mL
  Compound I Concentration, Median: 6.54 ng/mL
[20]
  Compound I Concentration, Max: 13.3 ng/mL
  Compound I Concentration, Median: 9.29 ng/mL
[21]
  Compound I Concentration, Max: 17.0 ng/mL
  Compound I Concentration, Median: 13.3 ng/mL
[22]
  Compound I Concentration, Max: 22.5 ng/mL
  Compound I Concentration, Median: 15.6 ng/mL
[23]
  Compound I Concentration, Max: 30.5 ng/mL
  Compound I Concentration, Median: 25.1 ng/mL
Cohort 8, 200 mg BID of Form B, Day 29, 6.0 h
  Compound I Concentration, Median: 21.1 ng/mL
Cohort 8, 200 mg BID of Form B, Day 29, 8.0 h
  Compound I Concentration, Median: 14.8 ng/mL
Cohort 8, 200 mg BID of Form B, Day 29, 10.0 h
  Compound I Concentration, Median: 11.7 ng/mL
Cohort 8, 200 mg BID of Form B, Day 29, 12.0 h
  Compound I Concentration, Median: 12.4 ng/mL
100 mg BID of Form B, Day 1, 0.0 h, Mean, read-out: Compound I Concentration
  concentration at 0 h: 0 ng/mL
100 mg BID of Form B, Day 1, 0.0 h, Median, read-out: Compound I Concentration
  concentration at 0 h: 0 ng/mL
[24]
  concentration at 1 h: 2.8 ng/mL
  concentration at 2 h: 6.21 ng/mL
  concentration at 3 h: 8.72 ng/mL
  concentration at 4 h: 8.98 ng/mL
  concentration at 6 h: 5.7 ng/mL
  concentration at 8 h: 4.07 ng/mL
  concentration at 10 h: 3.29 ng/mL
  concentration at 12 h: 2.93 ng/mL
[25]
  concentration at 1 h: 2.6 ng/mL
  concentration at 2 h: 5.71 ng/mL
  concentration at 3 h: 8.09 ng/mL
  concentration at 4 h: 7.47 ng/mL
  concentration at 6 h: 5.12 ng/mL
  concentration at 8 h: 3.71 ng/mL
  concentration at 10 h: 2.91 ng/mL
  concentration at 12 h: 2.2 ng/mL
Cohort 6, 100 mg BID of Form B, Day 8, read-out: Trough Compound I Concentration, Max
  concentration at 8 day: 23.7 ng/mL
Cohort 6, 100 mg BID of Form B, Day 8, read-out: Trough Compound I Concentration, Mean
  concentration at 8 day: 8.78 ng/mL
Cohort 6, 100 mg BID of Form B, Day 8, read-out: Trough Compound I Concentration, Median
  concentration at 8 day: 5.49 ng/mL
Cohort 6, 100 mg BID of Form B, Day 8, read-out: Trough Compound I Concentration, Min
  concentration at 8 day: 3.29 ng/mL
Cohort 6, 100 mg BID of Form B, Day 15, read-out: Trough Compound I Concentration, Max
  concentration at 15 day: 22 ng/mL
Cohort 6, 100 mg BID of Form B, Day 15, read-out: Trough Compound I Concentration, Mean
  concentration at 15 day: 8.92 ng/mL
Cohort 6, 100 mg BID of Form B, Day 15, read-out: Trough Compound I Concentration, Median
  concentration at 15 day: 6.34 ng/mL
Cohort 6, 100 mg BID of Form B, Day 15, read-out: Trough Compound I Concentration, Min
  concentration at 15 day: 3.31 ng/mL
Cohort 6, 100 mg BID of Form B, Day 22, read-out: Trough Compound I Concentration, Max
  concentration at 22 day: 10.9 ng/mL
Cohort 6, 100 mg BID of Form B, Day 22, read-out: Trough Compound I Concentration, Mean
  concentration at 22 day: 5.7 ng/mL
Cohort 6, 100 mg BID of Form B, Day 22, read-out: Trough Compound I Concentration, Median
  concentration at 22 day: 4.42 ng/mL
Cohort 6, 100 mg BID of Form B, Day 22, read-out: Trough Compound I Concentration, Min
  concentration at 22 day: 2.34 ng/mL
Cohort 6, 100 mg BID of Form B, Day 29, 0.0 h, read-out: Compound I Concentration, Max
  concentration at 0 h: 9.2 ng/mL
Cohort 6, 100 mg BID of Form B, Day 29, 0.0 h, read-out: Compound I Concentration, Mean
  concentration at 0 h: 4.35 ng/mL
